Laboratory results reported in article PMC4593760 (Nuclear medicine and biology, 2015).

Target: NTR1 (Homo sapiens, UniProt P30989)
Experiment: In vitro competitive binding on HT-29 cells against 177Lu-N1

NTR1, sequence (P30989 whole entry): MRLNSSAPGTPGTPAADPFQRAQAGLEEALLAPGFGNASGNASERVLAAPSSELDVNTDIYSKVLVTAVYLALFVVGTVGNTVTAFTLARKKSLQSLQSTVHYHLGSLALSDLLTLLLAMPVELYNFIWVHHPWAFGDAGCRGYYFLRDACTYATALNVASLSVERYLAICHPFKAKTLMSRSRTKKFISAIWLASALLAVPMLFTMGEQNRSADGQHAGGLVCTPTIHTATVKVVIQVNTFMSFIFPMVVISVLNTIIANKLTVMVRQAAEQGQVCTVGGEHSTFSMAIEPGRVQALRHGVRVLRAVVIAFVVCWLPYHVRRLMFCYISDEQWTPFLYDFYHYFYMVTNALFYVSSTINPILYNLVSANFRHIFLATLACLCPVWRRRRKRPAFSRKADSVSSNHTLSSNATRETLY

Cc1cc(O)cc(C)c1C[C@H](NC(=O)[C@@H]1CCCN1C(=O)[C@H](CCCNC(=N)N)NC(=O)[C@H](CCCNC(=N)N)N(C)C(=O)[C@@H]1CCCN1C(=O)[C@H](CCCCN)NC(=O)CN1CCN(CC(=O)O)CCN(CC(=O)O)CCN(CC(=O)O)CC1)C(=O)N[C@H](C(=O)N[C@@H](CC(C)C)C(=O)O)C(C)(C)C [N0, DOTA-Lys-Pro-(N-Me)Arg-Arg-Pro-Dmt-Tle-Leu-OH]
IC50: 52.3 ± 1.5 nM

Cc1cc(O)cc(C)c1C[C@H](NC(=O)[C@@H]1CCCN1C(=O)[C@H](CCCNC(=N)N)NC(=O)[C@H](CCCNC(=N)N)N(C)C(=O)[C@@H]1CCCN1C(=O)[C@H](CCCCN)NC(=O)CCNC(=O)CN1CCN(CC(=O)O)CCN(CC(=O)O)CCN(CC(=O)O)CC1)C(=O)N[C@H](C(=O)N[C@@H](CC(C)C)C(=O)O)C(C)(C)C [N1, DOTA-β-Ala-Lys-Pro-(N-Me)Arg-Arg-Pro-Dmt-Tle-Leu-OH]
IC50: 27.6 ± 1.3 nM
